Our source for the MIC values is patent US11807640B1 (priority 2023, dated 2023).

In the assay the test system is Mycobacterium tuberculosis (MTB) H37Rv. As to the kind of experiment: Resazurin Microplate Assay (REMA), anti-tubercular screening, H37Rv. It is filed as cell-based. The following applies: 192 h, Middlebrook 7H9 broth, 37° C., 8 days incubation then resazurin overnight, read-out: MIC (μg/mL) H37Rv.

In brackets after ≈: the same amount, converted by molar mass.

`CCOC(=O)c1cc(C(=O)c2ccc(F)cc2)n2ccc(C(=O)OC(C)C)cc12` [KNV-4, 1-Ethyl 7-isopropyl 3-(4-fluorobenzoyl)indolizine-1,7-dicarboxylate]: the MIC is 1 µg/mL (≈ 2.52 µM). As to `COC(=O)c1c(C(=O)OC)c2cc(C(=O)OC(C)C)ccn2c1C(=O)c1ccc(Br)cc1` [KNV-7, 7-Isopropyl 1,2-dimethyl 3-(4-bromobenzoyl)indolizine-1,2,7-tricarboxylate], the MIC turned out to be 1 µg/mL (≈ 1.99 µM).
